Series [1] deals with Parp1 mRNA. Briefly: Parp1 mRNA by RT-PCR. It is filed as cell-based, mouse. Particulars: 24 hours, FIG. 3A. The protocol: Cells were lyzed by RNAiso PLUS (TaKaRa, Japan), and then total RNA was purified using a FastPure RNA kit (TaKaRa, Japan) according to manufacturer's protocol. […] RNA was subjected to reverse transcription with PrimeScript Reverse Transcriptase (TaKaRa, Japan) and random hexamer (TaKaRa, Japan). The PCR reaction was performed using Platinum Taq DNA Polymerase High Fidelity (Invitrogen, USA) and Parp1 (forward, 5′-[…]-3′ (SEQ ID NO:6); reverse, 5′-[…]-3′ (SEQ ID NO:7)) or β-actin primers (forward, 5′-[…]-3′ (SEQ ID NO:8); reverse, 5′-[…]-3′ (SEQ ID NO:9)) as follows: initiation step, at 94° C. for 1 min; amplification step, 30 (Parp1) or 25 (β-actin) cycles of at 94° C. for 1 min, at 52° C. (Parp1) or 61° C. (β-actin) for 15 sec, at 68° C. for 15 sec; termination step, 68° C. 15 sec. PCR products were subjected to 1.8% agarose gel electrophoresis, stained with ethidium bromide, and visualized with LAS3000. The data was analyzed using MultiGauge software (FUJI FILM, Japan).

Series [2] concerns caspase-3. Briefly: caspase-3 activation by Western blotting in mouse fibroblast cells. As to conditions: 24 hours. It is filed as cell-based. Background: Immunoblotting shows a protein as a band on a membrane.
The test system of series [3] is 3T3-L1 cells.
Series [4] relates to Parp1. As to conditions: cited from earlier work.
For series [5], the system named is Parp1 protein. Briefly: Parp1 protein levels by Western blotting in human cell lines. Type of series: cell-based.
For series [6], the system named is Parp1 protein. Briefly: Parp1 protein levels by Western blotting in mouse cells. As to conditions: for Parp1 reduction, p53 dependency: MEFs from p53+/+ or −/− mice; for basal Parp1 protein levels: MG132 alone, 5 μM; for reduction in Parp1 protein: summary statement of the discussion. It is filed as cell-based. The source says: Mouse fibroblast cell line 3T3-L1, human lung cancer cell line A549, and human hepatoma cell line HepG2 were purchased from the RIKEN Bioresource Center (Japan). Mouse fibroblast cell line 3T3-F442A and human osteosarcoma cell line U2OS were purchased from the European Collection of Animal Cell Cultures (U.K.). p53 deficient mouse-derived fibroblast cell line HW (J. Med. Chem. (2010) 53, 4561-4584) was kindly provided by Dr. Masayuki Saito (Tenshi University, Japan). The cells were maintained in Dulbecco's modified Eagle's medium (low glucose) (WAKO, Japan) with 10% (3T3-L1, 3T3-F442A, HW, U2OS, and HepG2) or 5% (A549) fetal calf serum and 1% penicillin/streptomycin (SIGMA). Cpt and MG132 were purchased from WAKO (Japan).
We designed a mouse p53 shRNA expression vector based on target sequences for effective p53 knockdown, as previously reported (J. Biol. Chem. (2003) 278, 11731-11734). Two oligonucleotides, 5′-gatcccc[…]ttcaagaga[…]ttttt ggaaa-3′ (SEQ ID NO:1) and 5′-agcttttccaaaaa[…]tctcttgaa[…] ACggg-3′ (SEQ ID NO:2) (upper case letters, target sequences against p53; lower case letters, BgIII, HindIII or loop structure sequences) were chemically synthesized (Operon Biotechnology, USA). The annealed oligos were directly ligated into a BgIII and HindIII-digested pSUPER-puro shRNA expression vector gifted from Dr. Shigeo Ohno (Yokohama City University, Japan) (Cell Sci. (2006) 119, 2107-2118). The produced vector, termed pSUPER-puro-shmp53, was transfected with Lipofectamine LTX (Invitrogen, USA) into 3T3-L1 cells, according to the manufacturer's protocol. For stable p53 knockdown cell lines, the transfected cells were selected with puromycin and resistant clones were isolated by trypsinization using cloning cylinders.
p53 heterozygous mice (Accession Number, CDB 0001K) (Oncogene (1993) 8, 3313-3322) were purchased from RIKEN BRC (Saitama, Japan). p53 heterozygous males and females were crossed, and MEFs were prepared from the pregnant females. Each 13- to 15-day-old embryo was dissected from the uterus and washed with PBS. After removal of the head, tail, limbs, and blood-enriched organs, the trimmed embryo was washed with PBS and minced. After trypsinization at 37° C. for 10 min followed by inactivation of trypsin by addition of FCS, MEFs were separated by filtration through a cell-strainer. p53 status was confirmed by PCR using previously described primers (forward primer for p53 genomic sequence, 5′-[…]-3′ (SEQ ID NO:3); reverse primer for p53 genomic sequence, 5′-[…]-3′ (SEQ ID NO:4), forward primer for neo sequence, 5′-[…]-3′ (SEQ ID NO:5)) (Oncogene (1993) 8, 3313-3322), and the established MEFs were maintained in DMEM high glucose with 10% FCS, 2-mercaptoethanol (2-ME), and antibiotics.
Cells were lyzed by the addition of lysis buffer (50 mM Tris-HCl pH6.8, 2% SDS, 5% glycerol), boiled for 5 min, and sonicated. Protein concentrations of the soluble fraction were determined by BCA protein assay (PIERCE, USA) according to the manufacturer's protocol, and standardized by the addition of lysis buffer. Following this, the proteins were added to 2-ME and bromophenol blue so as to obtain final concentrations of 5% and 0.025%, respectively, and boiled for 5 min. Equal amounts of proteins (5 to 20 μg) were subjected to SDS-PAGE and transferred to nitrocellulose membranes. The membranes were blocked with 2.5% skim milk and 0.25% BSA in TBS (50 mM Tris, pH 7.4, 150 mM NaCl) containing 0.1% Tween 20 (TTBS) for 1 h at room temperature, and then probed with appropriate primary antibodies overnight at 4° C. or for 2 h at room temperature. As primary antibodies, anti-Parp1 (clone C-2-10, WAKO, Japan), anti-p53 (clone Ab-1, Calbiochem, USA), anti-βactin (clone AC-15, SIGMA, USA), or anti-caspase-3 (clone 1F3, MBL, Japan) antibodies were used. […]

Series [7] deals with p53. The series can be described thus: p53 protein stabilization by Western blotting in mouse fibroblast cells. It is filed as cell-based. As to conditions: for p53 accumulation: summary statement of the discussion; for p53 protein stabilization: 8 hours, FIG. 4A; for p53 stabilization: 24 hours, FIG. 1A.
Setting [8] is: 3T3-F442A cells, 8 hours, FIGS. 4A and 4B.
Setting [9] is: 3T3-F442A cells, 24 hours, FIGS. 1A and 1B.
Setting [10] is: 3T3-L1 cells, 8 hours, FIGS. 4A and 4B.
Setting [11] is: 3T3-L1 cells, 24 hours, FIGS. 1A and 1B.

Each structure is given as a SMILES string. Read-outs that look alike come from different tables or passages of the source. Where a SMILES comes first, the peptide text is derived from it. The star is where a group is joined. Cbz = O=C(OCc1ccccc1)*

For `COc1ccc(C2=N[C@@H](c3ccc(Cl)cc3)[C@@H](c3ccc(Cl)cc3)N2C(=O)N2CCNC(=O)C2)c(OC(C)C)c1` [Nutlin3a], the “Parp1 mRNA” value in series [1] (p53 deficient cell lines (3T3-L1/shp53 and HW)) was “did not change”; in series [1] (p53 proficient cell lines (3T3-L1 and 3T3-F442A)), “did not change”. The caspase-3 activation entry in series [2] (3T3-F442A cells) and in series [2] (3T3-L1 cells) was “no caspase-3 activation” in each case. In series [3], the “cell viability (trypan blue exclusion)” value is “the cells were viable”. Also, the “cleavage of Parp1” value in series [4] (human colon cancer cell line HCT116) and in series [4] (human myeloid leukemia cell line ML-1) was “induces cleavage of Parp1 into two apoptotic fragments” in each case. Besides, in series [5] (A549 cells, 24 h, FIG. 1D), the “Nutlin3a-induced Parp1 decrease” value is on record as “detected the Nutlin3a-induced Parp1 decrease in only A549 cells”. Besides, in series [5] (HCT116 cells, various doses of Nutlin3a, data not shown), the “reduction in Parp1 protein” value is listed as “no significant reduction in Parp1 protein other than apoptotic cleavage”. Also, the Parp1 protein levels entry is “markedly decreased the Parp1 protein levels” in series [6] (setting [8]), “markedly decreased it” in series [6] (setting [9]), “markedly decreased the Parp1 protein levels” in series [6] (setting [10]) and “markedly decreased it” in series [6] (setting [11]). Further, the “decrease in Parp1” value was “diminished significantly” in series [6] (3T3-L1/shp53 cells (p53 stable knockdown), FIG. 2B); “attenuated the decrease in Parp1” in series [6] (3T3-L1 cells with shRNA-mediated transient knockdown of p53, FIG. 2A); “diminished significantly” in series [6] (HW cells (p53 deficient), FIG. 2B). Besides, the “Parp1 protein, time course” value in series [6] (3T3-L1 or 3T3-F442A cells, 25 μM for 8 h, FIG. 1C) is “Parp1 protein diminished”. Further, the “Parp1 reduction, p53 dependency” value in series [6] (24 hours, FIG. 2C) is reported as “reduces the Parp1 protein levels in a p53-dependent manner”. Moreover, the “levels of full length of Parp1 protein” value in series [6] (Nutlin3a-treated 3T3-L1, first observation) was “significant reduction in the levels of full length of Parp1 protein without cleavage into p85 and p25 apoptotic fragments”.

Turning to `CC(C)C[C@@H](C=O)NC(=O)[C@H](CC(C)C)NC(=O)[C@H](CC(C)C)NC(=O)OCc1ccccc1` [MG132] (Cbz-Leu-Leu-Leu-aldehyde), the p53 accumulation result in series [7] was “induced p53 accumulation”. The “effect on Caylin2-induced reduction in Parp1” value in series [6] (5 μM MG132 with 20 μM Caylin2, 8 hours, 3T3-L1 cells, FIG. 6B) is recorded as “clearly inhibited the Caylin2-induced reduction in Parp1”. In series [6] (5 μM MG132 with 25 μM Nutlin3a, 8 hours, 3T3-L1 and 3T3-F442A cells, FIG. 3B), the “effect on Nutlin3a-induced reduction in Parp1” value was “clearly inhibited the Nutlin3a-induced reduction in Parp1”. Moreover, the “basal Parp1 protein levels” value is given as “did not affect basal Parp1 protein levels” in series [6] (8 hours, 3T3-L1 and 3T3-F442A cells, FIG. 3B); “did not affect basal Parp1 protein levels” in series [6] (8 hours, 3T3-L1 cells, FIG. 6B). The “reduction in Parp1 protein” value in series [6] is “did not evoke a significant reduction in Parp1 protein”.

In the case of `N.N.[Cl][Pt][Cl]` [cisplatin], the p53 accumulation entry in series [7] is “induced p53 accumulation”. Also, in series [6] (cisplatin treatment, data not shown), the Parp1 protein levels result is on record as “did not affect Parp1 protein levels”. Moreover, in series [6], the “reduction in Parp1 protein” value is “did not evoke a significant reduction in Parp1 protein”.

For `COc1ccc(C2=N[C@H](c3ccc(C(F)(F)F)cc3)[C@H](c3ccc(C(F)(F)F)cc3)N2C(=O)N2CCNC(=O)C2)c(OC(C)C)c1` [Caylin2], the p53 protein stabilization result in series [7] (3T3-F442A cells) and in series [7] (3T3-L1 cells) was “induced p53 protein stabilization” in each case. Besides, the “Parp1 cleavage / Parp1 protein” value in series [6] (20 μM Caylin2, 8 hours) was “induced Parp1 protein decrease without any trace of its apoptotic cleavage”; in series [6] (100 μM Caylin2, 8 hours), “induced Parp1 cleavage”. For the same molecule, the Parp1 protein levels entry in series [6] (setting [8]) and in series [6] (setting [10]) was “markedly decreased the Parp1 protein levels” each time. In addition, the “Parp1 reduction, p53 dependency” value in series [6] (8 hours, FIGS. 5A and 5B) is “reduces the Parp1 protein levels in a p53-dependent manner”.

Consider `CC[C@@]1(O)C(=O)OCc2c1cc1n(c2=O)Cc2cc3ccccc3nc2-1` [Cpt, camptothecin], for which the p53 stabilization result in series [7] (3T3-F442A cells) and in series [7] (3T3-L1 cells) was “induced p53 stabilization” in each case. In series [7], the p53 accumulation entry is given as “induced p53 accumulation”. The caspase-3 activation result in series [2] (3T3-F442A cells) and in series [2] (3T3-L1 cells) was “no caspase-3 activation” throughout. For the same molecule, the Parp1 protein levels result in series [6] (setting [9]) and in series [6] (setting [11]) was “did not alter the Parp1 protein levels” each time. For the same molecule, the “reduction in Parp1 protein” value in series [6] is given as “did not evoke a significant reduction in Parp1 protein”.

Source of the values: patent US9737532B2, “Method of treating ischemia/reperfusion injury” (TOKYO UNIVERSITY OF SCIENCE FOUNDATION, priority 2011, dated 2017).
